Where “and” joins values, the source holds several entries; their conditions need not be identical. Identical values can stand only once. Like-named read-outs stand apart in the source and are kept apart here.
How the values were obtained:
[1] = biological target: C. elegans (N2) complex I (NADH:ubiquinone oxidoreductase) (Caenorhabditis elegans, UniProt P24887+Q93873+Q94360); assay: biochemical; type: biochemical
Method in brief: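 Compounds were tested against freeze-thawed isolated mitochondria (0.2 mg/mL protein). NADH:decylubiquinone activity was monitored via DCIP absorbance at 600 nm, and the initial linear slope was normalised to solvent controls.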

C. elegans (N2) complex I (NADH:ubiquinone oxidoreductase), sequence (Q94360 17-199): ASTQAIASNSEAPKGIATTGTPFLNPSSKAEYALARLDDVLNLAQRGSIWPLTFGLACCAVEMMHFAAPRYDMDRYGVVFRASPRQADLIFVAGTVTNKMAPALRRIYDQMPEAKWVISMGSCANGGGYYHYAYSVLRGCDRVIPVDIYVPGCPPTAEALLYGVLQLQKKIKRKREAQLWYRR
C. elegans (N2) complex I (NADH:ubiquinone oxidoreductase), sequence (P24887 whole entry): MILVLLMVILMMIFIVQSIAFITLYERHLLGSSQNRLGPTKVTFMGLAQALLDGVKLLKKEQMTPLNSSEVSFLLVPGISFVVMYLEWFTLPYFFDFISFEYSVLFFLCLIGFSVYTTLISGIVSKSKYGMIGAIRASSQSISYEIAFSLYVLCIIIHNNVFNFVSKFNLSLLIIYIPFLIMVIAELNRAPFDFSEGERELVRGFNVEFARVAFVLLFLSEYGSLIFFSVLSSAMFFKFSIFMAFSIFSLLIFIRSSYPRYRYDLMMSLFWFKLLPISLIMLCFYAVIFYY
C. elegans (N2) complex I (NADH:ubiquinone oxidoreductase), sequence (Q93873 31-482): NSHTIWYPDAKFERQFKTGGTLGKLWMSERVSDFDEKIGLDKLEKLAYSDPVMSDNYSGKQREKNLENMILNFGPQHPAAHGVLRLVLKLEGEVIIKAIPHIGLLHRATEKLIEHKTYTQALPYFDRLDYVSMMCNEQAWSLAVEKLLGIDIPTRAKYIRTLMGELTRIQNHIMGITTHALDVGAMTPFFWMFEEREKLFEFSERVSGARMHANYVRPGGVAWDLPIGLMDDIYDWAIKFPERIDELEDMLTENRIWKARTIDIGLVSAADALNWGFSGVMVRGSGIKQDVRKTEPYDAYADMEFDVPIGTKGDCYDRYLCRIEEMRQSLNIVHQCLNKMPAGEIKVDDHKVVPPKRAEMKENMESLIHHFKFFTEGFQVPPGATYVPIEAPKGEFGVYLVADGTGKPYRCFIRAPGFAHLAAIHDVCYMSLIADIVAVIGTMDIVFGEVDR

In the case of `CCCn1c(COc2ccc(C)cc2)nc2ccccc21` [Compound 6944471], the activity at 0.0001 µM ([1]; Dose 0.0001 µM, read-out: C. elegans mitochondrial complex I activity) is reported as 95.2%, the activity at 0.0005 µM ([1]; Dose 0.0005 µM, read-out: C. elegans mitochondrial complex I activity) is reported as 103% and the activity at 0.001 µM ([1]; Dose 0.001 µM, read-out: C. elegans mitochondrial complex I activity) is reported as 96.6%. It also gave an activity at 0.0025 µM ([1]; Dose 0.0025 µM, read-out: C. elegans mitochondrial complex I activity) of 100%, an activity at 0.005 µM ([1]; Dose 0.005 µM, read-out: C. elegans mitochondrial complex I activity) of 90.8% and an activity at 0.013 µM ([1]; Dose 0.013 µM, read-out: C. elegans mitochondrial complex I activity) of 108%. The activity at 0.025 µM ([1]; Dose 0.025 µM, read-out: C. elegans mitochondrial complex I activity) was 106%, the activity at 0.063 µM ([1]; Dose 0.063 µM, read-out: C. elegans mitochondrial complex I activity) was 111% and the activity at 0.125 µM ([1]; Dose 0.125 µM, read-out: C. elegans mitochondrial complex I activity) was 123%. The activity at 0.313 µM ([1]; Dose 0.313 µM, read-out: C. elegans mitochondrial complex I activity) was 103%, the activity at 0.625 µM ([1]; Dose 0.625 µM, read-out: C. elegans mitochondrial complex I activity) was 113% and the activity at 1.5 µM ([1]; Dose 1.5 µM, read-out: C. elegans mitochondrial complex I activity) was 107%. The activity at 3 µM ([1]; Dose 3 µM, read-out: C. elegans mitochondrial complex I activity) was 96.1%, the activity at […] ([1]; Dose 7.5 µM, read-out: C. elegans mitochondrial complex I activity) was 108% and the activity at 15 µM ([1]; Dose 15 µM, read-out: C. elegans mitochondrial complex I activity) was 88.5%. For the same compound, the activity at 37.5 µM ([1]; Dose 37.5 µM, read-out: C. elegans mitochondrial complex I activity) was 89.5%, the activity at 75 µM ([1]; Dose 75 µM, read-out: C. elegans mitochondrial complex I activity) was 64.7% and the IC50 ([1]; wild-type C. elegans mitochondria, estimated from fitted dose-response curves, read-out: C. elegans Complex I IC50) was greater than 75 µM. The “Screen "Hit"” value (L1 wild-type C. elegans; 50 μM, […], hit = relative motility below 0.25 3 hours after removal of KCN) was “Y (hits were identified as compounds that reduced relative motility below 0.25 (75% reduction))”, the “Relative Motility” value (L1 wild-type C. elegans; 50 μM, […], worm motility 3 hours after removal of KCN, relative to DMSO controls, single biological replicate) was 0.170 and the “C. elegans KCN Survival” value (L1 wild-type C. elegans; Dose 0.2 µM, mean of at least three biological replicates) was 0.888. For the same compound, the “C. elegans KCN Survival” value (L1 wild-type C. elegans; Dose 0.39 µM) was 0.949, the “C. elegans KCN Survival” value (L1 wild-type C. elegans; Dose 1.56 µM) was 1.451 and the “C. elegans KCN Survival” value (L1 wild-type C. elegans; Dose 3.13 µM) was 0.820. The “C. elegans KCN Survival” value (L1 wild-type C. elegans; Dose 6.25 µM) was 0.671, the “C. elegans KCN Survival” value (L1 wild-type C. elegans; Dose 12.5 µM) was 0.270 and the “C. elegans KCN Survival” value (L1 wild-type C. elegans; Dose 25 µM) was 0.341. The “C. elegans KCN Survival” value (L1 wild-type C. elegans; Dose 50 µM) was 0.000 and the “C. elegans KCN Survival” value (L1 wild-type C. elegans; Dose 100 µM) was 0.000.
In the case of `c1ccc2[nH]c(-c3cscn3)nc2c1` [Thiabendazole], the “C. elegans L1 relative motility, 3-hour post 200 µM KCN dilution” value (shortened to “C. elegans L1 relative motility”) (L1 wild-type C. elegans; […], score 0-1 relative to DMSO, values >1 set to 1) is reported as 1.000.
`O=C(NCCc1ccc(Cl)cc1)c1ccccc1C(F)(F)F` [Wact-11] was tested, and the “% Activity Complex I” value ([1]; 100 µM compound, relative to solvent control, mean (SEM)) was 84.83 (1.45) %, the “CI Activity” value ([1]; 100 μM inhibitor, in vitro activity relative to solvent control, N2 C. elegans mitochondria, Mean) was 84.830% and the “Percent in vitro activity, Complex I (single replicate Rep1-Rep4)” value ([1]; 100 μM of NPD compound, C. elegans mitochondria, individual biological replicates) was 83.274% and 93.104% and 79.669%. For the same compound, the “Percent in vitro activity, Complex I (Mean)” value ([1]; 100 μM of NPD compound, C. elegans mitochondria, mean of four biological replicates) was 84.830%, the “C. elegans L1 relative motility” value (L1 wild-type C. elegans) was 0.985 and the “KCN survival assay value relative to DMSO control” value (L1 wild-type C. elegans) was 0.985. For the same compound, the “relative motility, 20 min after KCN removal” value (L1 wild-type C. elegans) was 0.070, the “relative motility, 80 min after KCN removal” value (L1 wild-type C. elegans) was 0.012 and the “relative motility, 110 min after KCN removal” value (L1 wild-type C. elegans) was 0.018. The “relative motility, 160 min after KCN removal” value (L1 wild-type C. elegans) was 0.009, the “relative motility, 180 min after KCN removal” value (L1 wild-type C. elegans) was 0.000 and the “KCN survival assay value relative to DMSO control” value (L1 wild-type C. elegans; 15 hour drug + KCN treatment, dose 0.1 µM, Mean of replicates) was 0.937. For the same compound, the “KCN survival assay value relative to DMSO control” value (L1 wild-type C. elegans; 15 hour drug + KCN treatment, dose 0.2 µM, Mean of replicates) was 0.997, the “KCN survival assay value relative to DMSO control” value (L1 wild-type C. elegans; 15 hour drug + KCN treatment, dose 0.4 µM, Mean of replicates) was 0.959 and the “KCN survival assay value relative to DMSO control” value (L1 wild-type C. elegans; 15 hour drug + KCN treatment, dose 0.8 µM, Mean of replicates) was 0.815. For the same compound, the “KCN survival assay value relative to DMSO control” value (L1 wild-type C. elegans; 15 hour drug + KCN treatment, dose 3.1 µM, Mean of replicates) was 0.584, the “KCN survival assay value relative to DMSO control” value (L1 wild-type C. elegans; 15 hour drug + KCN treatment, dose 6.3 µM, Mean of replicates) was 0.376 and the “KCN survival assay value relative to DMSO control” value (L1 wild-type C. elegans; 15 hour drug + KCN treatment, dose 12.5 µM, Mean of replicates) was 0.173. For the same compound, the “KCN survival assay value relative to DMSO control” value (L1 wild-type C. elegans; 15 hour drug + KCN treatment, dose 25 µM, Mean of replicates) was 0.067, the “KCN survival assay value relative to DMSO control” value (L1 wild-type C. elegans; 15 hour drug + KCN treatment, dose 50 µM, Mean of replicates) was 0.015 and the “KCN survival assay value relative to DMSO control” value (L1 wild-type C. elegans; 15 hour drug + KCN treatment, dose 100 µM, Mean of replicates) was 0.006. The LC50 (L1 wild-type C. elegans; caenorhabditis elegans) was 4.43 µM, the “C. elegans L1 relative motility” value (L1 wild-type C. elegans; dose 0.1 µM, Mean of replicates) was 0.937 and the “C. elegans L1 relative motility” value (L1 wild-type C. elegans; dose 0.2 µM, Mean of replicates) was 0.997. The “C. elegans L1 relative motility” value (L1 wild-type C. elegans; dose 0.4 µM, Mean of replicates) was 0.959, the “C. elegans L1 relative motility” value (L1 wild-type C. elegans; dose 0.8 µM, Mean of replicates) was 0.815 and the “C. elegans L1 relative motility” value (L1 wild-type C. elegans; dose 3.1 µM, Mean of replicates) was 0.584. The “C. elegans L1 relative motility” value (L1 wild-type C. elegans; dose 6.3 µM, Mean of replicates) was 0.376, the “C. elegans L1 relative motility” value (L1 wild-type C. elegans; dose 12.5 µM, Mean of replicates) was 0.173 and the “C. elegans L1 relative motility” value (L1 wild-type C. elegans; dose 25 µM, Mean of replicates) was 0.067. The “C. elegans L1 relative motility” value (L1 wild-type C. elegans; dose 50 µM, Mean of replicates) was 0.015, the “C. elegans L1 relative motility” value (L1 wild-type C. elegans; dose 100 µM, Mean of replicates) was 0.006 and the “C. elegans L1 relative motility” value (L1 wild-type C. elegans; dose […], Mean of replicates) was 0.795.
`COC(=O)Nc1nc2ccc(C(=O)c3ccccc3)cc2[nH]1` [mebendazole, reference compound] was tested, and the remaining activity at 0.125 µM ([1]; 0.125 µM, wild-type C. elegans mitochondria, mean of replicates, read-out: percent (%) in vitro complex I activity relative to solvent control) was 104%, the “percent (%) in vitro complex I activity relative to solvent control” value ([1]; 0.125 µM, wild-type C. elegans mitochondria, single replicate) was 95.514% and 94.187% and 106.525% and 121.019% and the remaining activity at 0.313 µM ([1]; 0.313 µM, wild-type C. elegans mitochondria, mean of replicates, read-out: percent (%) in vitro complex I activity relative to solvent control) was 102%. The “percent (%) in vitro complex I activity relative to solvent control” value ([1]; 0.313 µM, wild-type C. elegans mitochondria, single replicate) was 96.314% and 108.975% and 110.715%, the remaining activity at 0.313 µM ([1]; 0.313 µM, wild-type C. elegans mitochondria, single replicate, read-out: percent (%) in vitro complex I activity relative to solvent control) was 92.7% and the remaining activity at 0.625 µM ([1]; 0.625 µM, wild-type C. elegans mitochondria, mean of replicates, read-out: percent (%) in vitro complex I activity relative to solvent control) was 105%. For the same compound, the “percent (%) in vitro complex I activity relative to solvent control” value ([1]; 0.625 µM, wild-type C. elegans mitochondria, single replicate) was 110.023% and 108.944%, the remaining activity at 0.625 µM ([1]; 0.625 µM, wild-type C. elegans mitochondria, single replicate, read-out: percent (%) in vitro complex I activity relative to solvent control) was 100% and the remaining activity at 1.5 µM ([1]; 1.5 µM, wild-type C. elegans mitochondria, mean of replicates, read-out: percent (%) in vitro complex I activity relative to solvent control) was 101%. For the same compound, the “percent (%) in vitro complex I activity relative to solvent control” value ([1]; 1.5 µM, wild-type C. elegans mitochondria, single replicate) was 91.749% and 101.813% and 107.753%, the remaining activity at 1.5 µM ([1]; 1.5 µM, wild-type C. elegans mitochondria, single replicate, read-out: percent (%) in vitro complex I activity relative to solvent control) was 101% and the remaining activity at 3 µM ([1]; 3 µM, wild-type C. elegans mitochondria, mean of replicates, read-out: percent (%) in vitro complex I activity relative to solvent control) was 104%. The “percent (%) in vitro complex I activity relative to solvent control” value ([1]; 3 µM, wild-type C. elegans mitochondria, single replicate) was 97.513% and 112.361% and 102.837%, the remaining activity at 3 µM ([1]; 3 µM, wild-type C. elegans mitochondria, single replicate, read-out: percent (%) in vitro complex I activity relative to solvent control) was 104% and the remaining activity at 15 µM ([1]; 15 µM, wild-type C. elegans mitochondria, mean of replicates, read-out: percent (%) in vitro complex I activity relative to solvent control) was 102%. For the same compound, the “percent (%) in vitro complex I activity relative to solvent control” value ([1]; 15 µM, wild-type C. elegans mitochondria, single replicate) was 94.944% and 106.604% and 105.394%, the remaining activity at 15 µM ([1]; 15 µM, wild-type C. elegans mitochondria, single replicate, read-out: percent (%) in vitro complex I activity relative to solvent control) was 102% and the remaining activity at 37.5 µM ([1]; 37.5 µM, wild-type C. elegans mitochondria, mean of replicates, read-out: percent (%) in vitro complex I activity relative to solvent control) was 97.7%. The “percent (%) in vitro complex I activity relative to solvent control” value ([1]; 37.5 µM, wild-type C. elegans mitochondria, single replicate) was 90.732% and 104.066% and 100.084%, the remaining activity at 37.5 µM ([1]; 37.5 µM, wild-type C. elegans mitochondria, single replicate, read-out: percent (%) in vitro complex I activity relative to solvent control) was 95.9% and the remaining activity at 75 µM ([1]; 75 µM, wild-type C. elegans mitochondria, mean of replicates, read-out: percent (%) in vitro complex I activity relative to solvent control) was 91.3%. The “percent (%) in vitro complex I activity relative to solvent control” value ([1]; 75 µM, wild-type C. elegans mitochondria, single replicate) was 90.802% and 93.867% and 91.631% and the remaining activity at 75 µM ([1]; 75 µM, wild-type C. elegans mitochondria, single replicate, read-out: percent (%) in vitro complex I activity relative to solvent control) was 88.8%.
